This assay has as its system HEP-G2 cells. Nature of the assay: Inhibition of cholesterol biosynthesis (14C-acetate incorporation into cholesterol). In kind it is cell-based. Conditions: Homo sapiens, HepG2; HEP-G2 monolayers, 1 h preincubation, 3 h with 14C-sodium acetate; read-out: IC50 value (concentration at which 50% of the cholesterol synthesis was inhibited). As for the experimental part: 4. Inhibition of cholesterol biosynthesis
The biological effectiveness of the compound of the formula I was determined using cell cultures of cell line HEP-G2. For this purpose, monolayers of HEP-G2 cells were preincubated for one hour in a lipo-protein-free culture medium containing appropriate concentrations of the test substances; after the ^14 C-labeled precursor ^14 C-(sodium acetate) has been added, incubation is continued for three hours. After this, a portion of the cells are subjected to alkaline hydrolysis, an internal standard of ^3 H-cholesterol having been added previously. The lipids of the hydrolysed cells are extracted using chloroform/methanol. Support-cholesterol is added, and this lipid mixture is then separated by means of preparative thin-layer chromatography; the cholesterol band is made visible and then isolated, and the amount ^14 C-cholesterol which has been formed from the ^14 C-precursor is determined scintigraphically. […] In aliquots of the cell culture, the intactness of the cell culture and lack of damage to cells by the influence of preparations is assessed morphologically (in an optical microscope) and biochemically by determining the amount of lactate dehydrogenase in the incubation medium. […]

pIC50: −log10 of the molar value.

`CC[C@H](C)C(=O)O[C@H]1C[C@@H](C)C=C2C=C[C@H](C)[C@H](CC[C@@H]3C[C@@H](O)CC(=O)O3)[C@H]21` [lovastatin]: the pIC50 is 7.70.

The record behind these values is patent US5118882A, “Streptenols from streptomycetes, and the preparation and use thereof” (Hoechst Aktiengesellschaft, priority 1989, dated 1992).
